Results: ChEMBL document CHEMBL1201862, “PubChem BioAssay data set” (2004)
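These data come from cells grown in 96-well plates and exposed to compound for 48 hours at five concentrations. GI50: concentration for 50% inhibition of growth.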 Active and inactive are the calls of the source. Rule as the data show it: active = GI50 up to about 1.1 µM and inactive = higher.

Columns and labels:
Experiment in all cases: DTP human tumour cell line panel, 48 h
786-0 = tested on: 786-0
A498 = tested on: A498
A549 = tested on: A549
ACHN = tested on: ACHN
CAKI-1 = tested on: CAKI-1
CCRF-CEM = tested on: CCRF-CEM
COLO 205 = tested on: COLO 205
DLD-1 = tested on: DLD-1
DMS-114 = tested on: DMS-114
EKVX = tested on: EKVX
HCC 2998 = tested on: HCC 2998
HCT-116 = tested on: HCT-116
HCT-15 = tested on: HCT-15
HL-60 = tested on: HL-60
HOP-18 = tested on: HOP-18
HOP-62 = tested on: HOP-62
HOP-92 = tested on: HOP-92
HT-29 = tested on: HT-29
IGROV-1 = tested on: IGROV-1
K562 = tested on: K562
KM-20L2 = tested on: KM-20L2
KM12 = tested on: KM12
LOX IMVI = tested on: LOX IMVI
LXFL 529 = tested on: LXFL 529
M14 = tested on: M14
M19-MEL = tested on: M19-MEL
MOLT-4 = tested on: MOLT-4
Malme-3M = tested on: Malme-3M
NCI-H226 = tested on: NCI-H226
NCI-H23 = tested on: NCI-H23
NCI-H460 = tested on: NCI-H460
NCI-H522 = tested on: NCI-H522
OVCAR-3 = tested on: OVCAR-3
OVCAR-4 = tested on: OVCAR-4
OVCAR-5 = tested on: OVCAR-5
OVCAR-8 = tested on: OVCAR-8
RPMI-8226 = tested on: RPMI-8226
RXF 393 = tested on: RXF 393
RXF 631 = tested on: RXF 631
SF-268 = tested on: SF-268
SF-295 = tested on: SF-295
SF-539 = tested on: SF-539
SK-MEL-28 = tested on: SK-MEL-28
SK-MEL-2 = tested on: SK-MEL-2
SK-MEL-5 = tested on: SK-MEL-5
SK-OV-3 = tested on: SK-OV-3
SN12C = tested on: SN12C
SNB-19 = tested on: SNB-19
SNB-75 = tested on: SNB-75
SNB-78 = tested on: SNB-78
SR = tested on: SR
SW-620 = tested on: SW-620
TK-10 = tested on: TK-10
U-251 = tested on: U-251
UACC-257 = tested on: UACC-257
UACC-62 = tested on: UACC-62
UO-31 = tested on: UO-31
DMS-273 = tested on: DMS-273

`CC(=O)C1C(=O)C(=O)N(c2ccccc2N2C(=O)C(=O)C(C(C)=O)C2=O)C1=O` (stereo not drawn) was tested, and the GI50 (786-0) was > 100 µM (inactive), the GI50 (A498) was > 100 µM (inactive) and the GI50 (A549) was > 100 µM (inactive). For the same molecule, the GI50 (ACHN) was > 100 µM (inactive), the GI50 (CAKI-1) was > 100 µM (inactive) and the GI50 (CCRF-CEM) was > 100 µM (inactive). For the same molecule, the GI50 (COLO 205) was > 100 µM (inactive), the GI50 (DLD-1) was > 100 µM (inactive) and the GI50 (DMS-114) was > 100 µM (inactive). For the same molecule, the GI50 (EKVX) was 39.9 µM (inactive), the GI50 (HCC 2998) was > 100 µM (inactive) and the GI50 (HCT-116) was > 100 µM (inactive). For the same molecule, the GI50 (HCT-15) was greater than 100 µM, the GI50 (HL-60) was > 100 µM (inactive) and the GI50 (HOP-18) was > 100 µM (inactive). The GI50 (HOP-62) was > 100 µM (inactive), the GI50 (HOP-92) was > 100 µM (inactive) and the GI50 (HT-29) was > 100 µM (inactive). For the same molecule, the GI50 (IGROV-1) was > 100 µM (inactive), the GI50 (K562) was > 100 µM (inactive) and the GI50 (KM-20L2) was > 100 µM (inactive). The GI50 (KM12) was > 100 µM (inactive), the GI50 (LOX IMVI) was > 100 µM (inactive) and the GI50 (LXFL 529) was > 100 µM (inactive). The GI50 (M14) was > 100 µM (inactive), the GI50 (M19-MEL) was > 100 µM (inactive) and the GI50 (MOLT-4) was > 100 µM (inactive). The GI50 (Malme-3M) was > 100 µM (inactive), the GI50 (NCI-H226) was > 100 µM (inactive) and the GI50 (NCI-H23) was > 100 µM (inactive). The GI50 (NCI-H460) was > 100 µM (inactive), the GI50 (NCI-H522) was > 100 µM (inactive) and the GI50 (OVCAR-3) was > 100 µM (inactive). For the same molecule, the GI50 (OVCAR-4) was > 100 µM (inactive), the GI50 (OVCAR-5) was > 100 µM (inactive) and the GI50 (OVCAR-8) was > 100 µM (inactive). The GI50 (RPMI-8226) was > 100 µM (inactive), the GI50 (RXF 393) was > 100 µM (inactive) and the GI50 (RXF 631) was > 100 µM (inactive). The GI50 (SF-268) was > 100 µM (inactive), the GI50 (SF-295) was > 100 µM (inactive) and the GI50 (SF-539) was > 100 µM (inactive). The GI50 (SK-MEL-28) was > 100 µM (inactive), the GI50 (SK-MEL-2) was > 100 µM (inactive) and the GI50 (SK-MEL-5) was > 100 µM (inactive). For the same molecule, the GI50 (SK-OV-3) was > 100 µM (inactive), the GI50 (SN12C) was > 100 µM (inactive) and the GI50 (SNB-19) was > 100 µM (inactive). The GI50 (SNB-75) was > 100 µM (inactive), the GI50 (SNB-78) was > 100 µM (inactive) and the GI50 (SR) was > 100 µM (inactive). The GI50 (SW-620) was > 100 µM (inactive), the GI50 (TK-10) was > 100 µM (inactive) and the GI50 (U-251) was > 100 µM (inactive). For the same molecule, the GI50 (UACC-257) was > 100 µM (inactive), the GI50 (UACC-62) was > 100 µM (inactive) and the GI50 (UO-31) was > 100 µM (inactive).

In the case of `CCCCCCc1cc(C(=O)Nc2cccc(C(F)(F)F)c2)nc(N)n1`, the GI50 (786-0) is reported as > 100 µM (inactive), the GI50 (A498) is reported as > 100 µM (inactive) and the GI50 (A549) is reported as > 100 µM (inactive). The GI50 (ACHN) was > 100 µM (inactive), the GI50 (CAKI-1) was > 100 µM (inactive) and the GI50 (CCRF-CEM) was > 100 µM (inactive). The GI50 (COLO 205) was > 100 µM (inactive), the GI50 (DLD-1) was > 100 µM (inactive) and the GI50 (DMS-114) was > 100 µM (inactive). For the same molecule, the GI50 (DMS-273) was > 100 µM (inactive), the GI50 (EKVX) was > 100 µM (inactive) and the GI50 (HCC 2998) was > 100 µM (inactive). For the same molecule, the GI50 (HCT-116) was > 100 µM (inactive), the GI50 (HCT-15) was greater than 100 µM and the GI50 (HL-60) was > 100 µM (inactive). The GI50 (HOP-18) was > 100 µM (inactive), the GI50 (HOP-62) was 63.4 µM (inactive) and the GI50 (HOP-92) was > 100 µM (inactive). The GI50 (HT-29) was > 100 µM (inactive), the GI50 (IGROV-1) was > 100 µM (inactive) and the GI50 (K562) was > 100 µM (inactive). For the same molecule, the GI50 (KM-20L2) was > 100 µM (inactive), the GI50 (KM12) was > 100 µM (inactive) and the GI50 (LOX IMVI) was > 100 µM (inactive). The GI50 (LXFL 529) was > 100 µM (inactive), the GI50 (M14) was > 100 µM (inactive) and the GI50 (M19-MEL) was > 100 µM (inactive). For the same molecule, the GI50 (MOLT-4) was > 100 µM (inactive), the GI50 (Malme-3M) was > 100 µM (inactive) and the GI50 (NCI-H226) was > 100 µM (inactive). For the same molecule, the GI50 (NCI-H23) was > 100 µM (inactive), the GI50 (NCI-H460) was > 100 µM (inactive) and the GI50 (OVCAR-3) was > 100 µM (inactive). For the same molecule, the GI50 (OVCAR-4) was > 100 µM (inactive), the GI50 (OVCAR-5) was > 100 µM (inactive) and the GI50 (RPMI-8226) was > 100 µM (inactive). For the same molecule, the GI50 (RXF 393) was > 100 µM (inactive), the GI50 (RXF 631) was > 100 µM (inactive) and the GI50 (SF-268) was > 100 µM (inactive). The GI50 (SF-295) was > 100 µM (inactive), the GI50 (SF-539) was > 100 µM (inactive) and the GI50 (SK-MEL-28) was > 100 µM (inactive). The GI50 (SK-MEL-2) was > 100 µM (inactive), the GI50 (SK-MEL-5) was > 100 µM (inactive) and the GI50 (SK-OV-3) was > 100 µM (inactive). The GI50 (SN12C) was > 100 µM (inactive), the GI50 (SNB-19) was > 100 µM (inactive) and the GI50 (SNB-75) was > 100 µM (inactive). For the same molecule, the GI50 (SNB-78) was > 100 µM (inactive), the GI50 (SR) was > 100 µM (inactive) and the GI50 (SW-620) was > 100 µM (inactive). For the same molecule, the GI50 (TK-10) was > 100 µM (inactive), the GI50 (U-251) was > 100 µM (inactive) and the GI50 (UACC-257) was > 100 µM (inactive). The GI50 (UACC-62) was > 100 µM (inactive) and the GI50 (UO-31) was > 100 µM (inactive).
